Experiment: Solubility in water of each lactate
Assay type: physicochemical
Settings: for Solubility in Water: solubility of the lactate solvent in water, yes = water soluble
Procedure: Solubility of several pesticides was measured in Isoamyl lactate versus other lactates. In addition the solubility in water of each lactate has been checked.

| SMILES | Solubility in Water | Water solubility (statement in description) |
| --- | --- | --- |
| CC(C)OC(=O)C(C)O (stereo not shown) [Example C4, Isopropyl lactate] | yes | – |
| CC(C)CCOC(=O)C(C)O (stereo not shown) [Example 6, Isoamyl lactate] | <1% | not water soluble |
| CCCCOC(=O)C(C)O (stereo not shown) [Example C3, Butyl lactate] | yes | – |
